system: SU-DHL-4 cells; assay: Inhibitory effect on cell viability (Cell Counting Kit-8); format: cell-based; conditions: Homo sapiens, 72 hours culture with test compound, concentration showing 90% inhibition rate of cell viability
Procedure: Inhibitiory Effect on Cell Viability
SU-DHL-4 cells (Code No. ACC 495, Deutsche Sammlung von Mikroorganismen and Zellkulturen GmbH) were cultured at 37° C. using a carbon dioxide incubator (95% air, 5% CO2) in RPMI1640 medium (Code No. 11875-093, Thermo Fisher Scientific) in which inactivated fetal bovine serum (FBS: Code No. 10099-148, Thermo Fisher Scientific) in an amount to give a final concentration of 10 vol % and penicillin/streptomycin solution (PS: Code No. 15140-122, Thermo Fisher Scientific) in an amount to give a final concentration of 1 vol % were added. The cells were passaged twice a week at a volume of 20-40 mL so as to maintain a cell concentration of 1×10^6 cells/mL or less.
The cultured SU-DHL-4 cells were seeded at 2000 cells/well in a transparent 384-well plate (Code No. 781182, Greiner bio-one). After seeding, the cells were precultured at 37° C. in a carbon dioxide gas incubator for 18 to 25 hours. Next, 1, 0.1 or 0.01 mmol/L DMSO solution of the test compound was prepared and a 9-step dilution series were prepared so that the concentration will be 200 times the final concentration in the RPMI1640 medium containing the above FBS and PS, and 1/200 volume of the dilution series were added to each well. At this time, the final concentration of DMSO was adjusted to be 0.1 vol %. After adding the test compound, the cells were cultured at 37° C. in a carbon dioxide gas incubator for 72 hours. Next, 0.020 mL of Cell Counting Kit-8 (Code No. CK04, DOJINDO) solution diluted 2-fold or 4-fold with phosphate buffered saline (PBS) was added to each well. Color reaction was carried out in a carbon dioxide gas incubator at 37° C. for 2 to 3 hours, and the absorbance at a wavelength of 450 nm was measured using SpectraMax 340PC (Molecular Devices). The inhibition rate of cell viability was calculated by the following formula, and the concentration of the test compound (IC90 value) showing a 90% inhibition rate of cell viability was calculated. Inhibition rate of cell viability (%)=100−(A−B)/(C−B)×100 • A: Absorbance of a well containing test compound • B: Absorbance of a well without addition of cells • C: Absorbance of a well without addition of test compound

In order of falling IC90:
1. CCC(=O)N1c2ccccc2[C@H](NCC2CCN(C(=O)N3CC(C(=O)Nc4ccc(N[C@@H]5C[C@H](C)N(C(=O)CC)c6ccccc65)cc4)C3)CC2)C[C@@H]1C (relative stereo) [Compound 10p, 1-(4-((((2S*,4R*)-2-Methyl-1-propionyl-1,2,3,4-tetrahydroquinolin-4-yl)amino)methyl)piperidine-1-carbonyl)-N-(4-(((2S,4R)-2-methyl-1-propionyl-1,2,3,4-tetrahydroquinolin-4-yl)amino)phenyl)azetidine-3-carboxamide]  47.5 nM
2. CCC(=O)N1c2ccccc2[C@H](Nc2ccc(C(=O)N3CCC(C(=O)Nc4ccc(N[C@@H]5C[C@H](C)N(C(=O)CC)c6ccccc65)nc4)CC3)cc2)C[C@@H]1C (relative stereo) [Compound 10m, 1-(4-(((2S,4R)-2-Methyl-1-propionyl-1,2,3,4-tetrahydroquinolin-4-yl)amino)benzoyl)-N-(6-(((2S*,4R*)-2-methyl-1-propionyl-1,2,3,4-tetrahydroquinolin-4-yl)amino)pyridin-3-yl)piperidine-4-carboxamide]  30.9 nM
3. CCC(=O)N1c2ccccc2[C@H](Nc2ccc(NC(=O)CCCC(=O)Nc3ccc(N[C@@H]4C[C@H](C)N(C(=O)CC)c5cc(CCCN)ccc54)cc3)cc2)C[C@@H]1C (relative stereo) [Compound 10s, N^1-(4-(((2S*,4R*)-7-(3-Aminopropyl)-2-methyl-1-propionyl-1,2,3,4-tetrahydroquinolin-4-yl)amino)phenyl)-N^5-(4-(((2S,4R)-2-methyl-1-propionyl-1,2,3,4-tetrahydroquinolin-4-yl)amino)phenyl)glutaramide]  21.7 nM
4. CCC(=O)N1c2ccccc2[C@H](Nc2ccc(CNCc3cn(-c4ccc(N[C@@H]5C[C@H](C)N(C(=O)CC)c6ccccc65)nc4)nn3)cc2)C[C@@H]1C (relative stereo) [Compound 10j, 1-((2S,4R)-2-Methyl-4-((4-((((1-(6-(((2S*,4R*)-2-methyl-1-propionyl-1,2,3,4-tetrahydroquinolin-4-yl)amino)pyridin-3-yl)-1H-1,2,3-triazol-4-yl)methyl)amino)methyl)phenyl)amino)-3,4-dihydroquinoline-1(2H)-yl)propan-1-one]  1.73 nM
5. CCC(=O)N1c2ccccc2[C@H](Nc2ccc(C(=O)NCCC(=O)Nc3ccc(N[C@@H]4C[C@H](C)N(C(=O)CC)c5ccccc54)nc3)cc2)C[C@@H]1C (relative stereo) [Compound 10o, 4-(((2S,4R)-2-Methyl-1-propionyl-1,2,3,4-tetrahydroquinolin-4-yl)amino)-N-(3-((6-(((2S*,4R*)-2-methyl-1-propionyl-1,2,3,4-tetrahydroquinolin-4-yl)amino)pyridin-3-yl)amino)-3-oxopropyl)benzamide]  1.48 nM
6. CCC(=O)N1c2ccccc2[C@H](Nc2ccc(NC(=O)CCCC(=O)Nc3ccc(N[C@@H]4C[C@H](C)N(C(=O)CC)c5ccccc54)cn3)cc2)C[C@@H]1C (relative stereo) [Compound 10l, N^1-(4-(((2S,4R)-2-Methyl-1-propionyl-1,2,3,4-tetrahydroquinolin-4-yl)amino)phenyl)-N^5-(5-(((2S*,4R*)-2-methyl-1-propionyl-1,2,3,4-tetrahydroquinolin-4-yl)amino)pyridin-2-yl)glutaramide]  1.08 nM
7. CCC(=O)N1c2ccccc2[C@H](Nc2ccc(C(=O)NCC#CC(=O)Nc3ccc(N[C@@H]4C[C@H](C)N(C(=O)CC)c5ccccc54)nc3)cc2)C[C@@H]1C (relative stereo) [Compound 10n, 4-(((2S,4R)-2-Methyl-1-propionyl-1,2,3,4-tetrahydroquinolin-4-yl)amino)-N-(4-((6-(((2S*,4R*)-2-methyl-1-propionyl-1,2,3,4-tetrahydroquinolin-4-yl)amino)pyridin-3-yl)amino)-4-oxobut-2-yn-1-yl)benzamide]  0.01 nM

Reference: patent US12054494B2, “Compound with anticancer activity” (KYOWA KIRIN CO., LTD., priority 2018, dated 2024)
